According to patent US11407783B2, “Triptolide derivative and preparation method therefor and use thereof” (priority 2018, dated 2022):
Like-named read-outs stand apart in the source and are kept apart here.

How the values were obtained:
[1] = test system: AsPC-1 (human pancreatic cancer cell); assay: In vitro antitumor activity, CellTiter-Glo cell viability, 48 h; assay type: cell-based; conditions: read-out: Relative IC50 (μM) AsPC-1
Experimental: (§1) Tumor cells included AsPC-1 (human pancreatic cancer cell), PC-3 (human prostate cancer cell), and SK-OV-3 (human ovarian cancer cell).
(§2) Triptolide was used as a positive control; the working concentrations of the test drug were 1 μM, 0.33 μM, 0.11 μM, […], 0.012 μM, 0.004 μM, 1.4 nM, and 0.46 nM. After the tumor cells were revived, they were resuspended in the corresponding complete medium, placed in 5% CO2, and cultured at 37° C. The tumor cells at the logarithmic growth stage were suspended in the corresponding complete medium to adjust the cell concentration. 90 μL of cell suspension was added into each well. The cells were incubated at 37° C. in 5% CO2 overnight. Each concentration of the test drug was added and the cells were further cultured for 48 hours. Finally. Promega CellTiter-Glo Luminescent Cell Viability Assay Kit was used for detection.

[2] = test system: SK-OV-3 (human ovarian cancer cell); assay: as above; assay type: cell-based; conditions: read-out: Relative IC50 (μM) SK-OV-3
Experimental: as §1, §2

[3] = test system: PC-3 (human prostate cancer cell); assay: as above; assay type: cell-based; conditions: read-out: Relative IC50 (μM) PC-3
Experimental: as §1, §2

[4] = test system: mouse B lymphocytes induced by LPS; assay: In vitro immunosuppressive activity, spleen lymphocyte proliferation (3H-thymidine), LPS-induced; assay type: cell-based, BALB/c mice; conditions: read-out: IC50 (μM) mouse B lymphocytes induced by LPS
Experimental: (§3) Preparation of Mouse Spleen Lymphocyte
(§4) BALB/c mice were sacrificed by spinal dislocation, and their spleen was aseptically taken out. A single cell suspension was prepared and adjusted to the required concentration.
(§5) A suspension of 4×10^6 cells/ml spleen lymphocytes was routinely prepared and 100 μL of cells was added into each well of a 96-well plate. 50 μL test sample in different concentrations was added and ConA (final concentration 5 μg/mL) was added to induce T lymphocyte activation and proliferation, or LPS (final concentration 10 μg/mL) (50 μL) was added to induce B lymphocyte activation and proliferation. The corresponding positive control and non-stimulating background control were set. The cells were cultured in 37° C., 5% CO2 incubator for 48 h. 0.25 μCi ^3H-thymidine was introduced and the cultivation was completed after 8 h. At the end of the cultivation, the culture plate was frozen at −20° C. in a freezer until measurement. The cells were collected on a glass fiber membrane with a cell harvester and then scintillation solution was added. The amount of ^3H-thymine nucleotides incorporated into the cells' DNA was read on a Beta counter. The cell proliferation was represented by the cpm value.

[5] = test system: mouse T lymphocytes induced by ConA; assay: In vitro immunosuppressive activity, spleen lymphocyte proliferation (3H-thymidine), ConA-induced; assay type: cell-based, BALB/c mice; conditions: read-out: IC50 (μM) mouse T lymphocytes induced by ConA
Experimental: as §3, §4, §5

[6] = Body weight, mortality and toxicity in AsPC-1 tumor-bearing nude mice; assay type: in vivo, male nude mice; conditions: emulsions
Experimental: Human pancreatic cancer cell AsPC-1 was subcutaneously inoculated on the right abdominal side of male nude mice. Tumor-bearing mice were randomly divided into 5 groups: negative control group (Control, n=8, blank emulsion, i.p./i.v., qd); Triptolide group (Triptolide, n=8, 0.25 mg/kg, i.v., qd); positive control group (Gemcitabine, n=8, 50 mg/kg, i.p., tiw); CK21S-005 emulsion group (CK21S-005 emulsion, n=8, 5 mg/kg, i.p./i.v., qd); and CK21S-005 emulsion group (CK21S-005 emulsion, n=8, 2.5 mg/kg, i.p./i.v., qd). Mice were administered in groups until the end of the experiment. The changes in tumor size and tumor-bearing mouse weight over time were monitored during the 2-week administration period, and tumors were weighed at the end of the experiment to comprehensively evaluate the inhibitory effect of the drug CK21S-005 on tumor growth.
The preparation method of the emulsion was as follows. A prescribed amount of injection oil was weighed and heated to 70-90° C. A prescribed amount of raw material was weighed, dispersed in the oil phase and completely dissolved under shear-stirring to form an oil phase. A prescribed amount of injection water was weighed and heated to 70° C. A prescribed amount of phospholipid, co-emulsifier, glycerin, etc. were added and dispersed under shear to form an aqueous phase. […]

[7] = ASPC1, AsPC-1, 48 hours, CellTiter-Glo
[8] = SK-OV-3, 48 hours, CellTiter-Glo
[9] = LPS 10 μg/mL, 48 h, 3H-thymidine
[10] = ConA 5 μg/mL, 48 h, 3H-thymidine

SMILES	IC50 ([1]; ASPC1, 48 h) [µM]	IC50 ([2]; SK-OV-3, 48 h) [µM]	IC50 ([3]; 48 h) [µM]	IC50 [4] [µM]	IC50 [5] [µM]	IC50 [1, 7] [µM]	IC50 [2, 8] [µM]	IC50 ([3]; PC-3, 48 hours, CellTiter-Glo) [µM]	IC50 [4, 9] [µM]	IC50 [5, 10] [µM]	Safety compared with triptolide [6]
CC(C)[C@]12O[C@H]1[C@@H]1O[C@]13[C@]1(O[C@H]1C[C@H]1C4=C(CC[C@@]13C)C(=O)O/C4=C(/OC(=O)c1ccco1)c1ccccc1)[C@@H]2OC(=O)OC(C)(C)C [CK21S-001-b]	0.03	0.048	0.029	0.01	0.011	–	–	–	–	–	–
CC(C)[C@]12O[C@H]1[C@@H]1O[C@]13[C@]1(O[C@H]1C[C@H]1C4=C(CC[C@@]13C)C(=O)O/C4=C(/OC(=O)c1ccco1)c1ccccc1)[C@@H]2O [CK21S-001]	–	–	–	–	–	0.028	0.042	0.022	0.006	0.008	–
COc1ccc(C(=O)O/C(=C2/OC(=O)C3=C2[C@@H]2C[C@@H]4O[C@@]45[C@H](OC(=O)OC(C)(C)C)[C@@]4(C(C)C)O[C@H]4[C@@H]4O[C@@]45[C@@]2(C)CC3)c2ccc(OC)cc2)cc1 [CK21S-002-b]	0.042	0.057	0.042	0.01	0.012	–	–	–	–	–	–
COc1ccc(C(=O)O/C(=C2/OC(=O)C3=C2[C@@H]2C[C@@H]4O[C@@]45[C@H](O)[C@@]4(C(C)C)O[C@H]4[C@@H]4O[C@@]45[C@@]2(C)CC3)c2ccc(OC)cc2)cc1 [CK21S-002]	–	–	–	–	–	0.071	0.07	0.056	0.02	0.021	–
CC(C)[C@]12O[C@H]1[C@@H]1O[C@]13[C@]1(O[C@H]1C[C@H]1C4=C(CC[C@@]13C)C(=O)O/C4=C(/OC(=O)c1ccc(C(F)(F)F)cc1)c1ccc(C(F)(F)F)cc1)[C@@H]2OC(=O)OC(C)(C)C [CK21S-003-b]	0.02	0.029	0.021	0.005	0.006	–	–	–	–	–	–
CC(C)[C@]12O[C@H]1[C@@H]1O[C@]13[C@]1(O[C@H]1C[C@H]1C4=C(CC[C@@]13C)C(=O)O/C4=C(/OC(=O)c1ccc(C(F)(F)F)cc1)c1ccc(C(F)(F)F)cc1)[C@@H]2O [CK21S-003]	–	–	–	–	–	0.014	0.028	0.018	0.004	0.006	–
CC(C)[C@]12O[C@H]1[C@@H]1O[C@]13[C@]1(O[C@H]1C[C@H]1C4=C(CC[C@@]13C)C(=O)O/C4=C(/OC(=O)c1ccco1)c1ccco1)[C@@H]2OC(=O)OC(C)(C)C [CK21S-004-b]	0.096	0.129	0.045	0.025	0.03	–	–	–	–	–	–
CC(C)[C@]12O[C@H]1[C@@H]1O[C@]13[C@]1(O[C@H]1C[C@H]1C4=C(CC[C@@]13C)C(=O)O/C4=C(/OC(=O)c1ccco1)c1ccco1)[C@@H]2O [CK21S-004]	–	–	–	–	–	0.038	0.118	0.023	0.009	0.012	–
CC(C)[C@]12O[C@H]1[C@@H]1O[C@]13[C@]1(O[C@H]1C[C@H]1C4=C(CC[C@@]13C)C(=O)O/C4=C(/OC(=O)c1ccccc1)c1ccccc1)[C@@H]2OC(=O)OC(C)(C)C [CK21S-005-b]	–	–	–	–	–	0.042	0.04	0.035	0.009	0.011	–
CC(C)[C@]12O[C@H]1[C@@H]1O[C@]13[C@]1(O[C@H]1C[C@H]1C4=C(CC[C@@]13C)C(=O)O/C4=C(/OC(=O)c1ccccc1)c1ccccc1)[C@@H]2O [CK21S-005]	0.04	0.041	0.03	0.01	0.012	–	–	–	–	–	better than that of triptolide
CC(C)[C@]12O[C@H]1[C@@H]1O[C@]13[C@]1(O[C@H]1C[C@H]1C4=C(CC[C@@]13C)C(=O)O/C4=C(/OC(=O)C1CCCCC1)c1ccccc1)[C@@H]2OC(=O)OC(C)(C)C [CK21S-006-b]	0.036	0.045	0.034	0.015	0.016	–	–	–	–	–	–
CC(C)[C@]12O[C@H]1[C@@H]1O[C@]13[C@]1(O[C@H]1C[C@H]1C4=C(CC[C@@]13C)C(=O)O/C4=C(/OC(=O)C1CCCCC1)c1ccccc1)[C@@H]2O [CK21S-006]	–	–	–	–	–	0.035	0.041	0.031	0.008	0.01	–
CC(C)[C@]12O[C@H]1[C@@H]1O[C@@]13[C@@]1(C)CCC4=C(/C(=C(\OC(=O)c5ccccc5)c5ccccc5)OC4=O)[C@@H]1C[C@@H]1O[C@@]13C2=O [CK21S-007]	–	–	–	–	–	0.049	0.05	0.043	0.017	0.015	–
CC(C)[C@]12O[C@H]1[C@@H]1O[C@@]13[C@@]1(C)CCC4=C(/C(=C(\OC(=O)c5ccccc5)c5ccccc5)OC4=O)[C@@H]1C[C@@H]1O[C@@]13C2F (stereo partly drawn) [CK21S-008]	–	–	–	–	–	0.035	0.038	0.03	0.009	0.01	–
CC(C)[C@]12O[C@H]1[C@@H]1O[C@]13[C@]1(O[C@H]1C[C@H]1C4=C(CC[C@@]13C)C(=O)O/C4=C(/OC(=O)c1ccccc1)c1ccccc1)[C@@H]2OCOP(=O)(O)O [CK21S-009]	–	–	–	–	–	0.03	0.032	0.027	0.008	0.008	–
CC(C)[C@]12O[C@H]1[C@@H]1O[C@]13[C@]1(O[C@H]1C[C@H]1C4=C(CC[C@@]13C)C(=O)OC4)[C@@H]2O [Triptolide, triptolide]	–	–	–	–	–	0.014	0.016	0.014	0.004	0.005	–
